Results taken from US20020037544A1 (priority 1998, published 2002).
Entries after “also recorded” stand apart in the source; their conditions may differ. Values belong to the molecule of their own block, whether it stands above or below them.

How the values were obtained:
p120 and p100 [1] = test: p120/p100 band shift (mobility shift) by SDS-PAGE and immunoblotting in HUVEC; format: cell-based, Human; conditions: for p120/p100 electrophoretic mobility (band shift): 10 μM histamine, 200 nM PDB
Description: (§1) Human umbilical vein endothelial cells (HUVEC), pooled donors, were from BioWhitaker and cultured in EGM on collagen-coated plastic (Falcon) according to the supplier's instructions. The cells were cultured in medium in the presence of 100 U/ml penicillin and 100 μg/ml streptomycin at 37° C. in humidified air containing 10% CO2. Routinely, stocks were maintained in 75 cm^2 flasks and split at a 1:3 ratio when almost confluent. For experimental use, cells were seeded in appropriate plasticware such that confluence was established within 2-3 days and the cells were usually used 5-6 days after seeding. Prior to experimental use, confluent monolayers of cells were equilibrated in fresh medium for at least 2 hours prior to the start of the experiment. Compounds and agents that were only soluble in Me2SO were added to the culture medium of the cells in an equal volume of CO2-and temperature-equilibrated medium containing twice the finally required concentration of compound. […] Aqueous soluble agents were added at a 1:100 dilution directly to the cultures. In all cases, appropriate vehicle controls were performed and found to have no effect.
(§2) Whole cell lysates were prepared by aspiration of culture medium and immediately replacing it with boiling hot Laemmli sample buffer (Laemmli, U. K. (1970) Cleavage of structural proteins during the assembly of the head of bacteriophage T4. Nature 227, 680-685) supplemented with 5 mM EDTA.Na4. The samples were collected and heated at 100° C. for 5 minutes. Proteins were resolved by gel electrophoresis using 8% acrylamide slab gels (Hoefer SE 600 system, 16 cm) and the buffers described (Laemmli, 1970, loc cit). Gels were run overnight at 55 V. The gels were then equilibrated for 30 minutes in buffer at 4° C. containing 48 mM Tris, 39 mM glycine, 0.03% SDS (w/v) and 20% methanol (v/v), and electrotransferred to nitrocellulose filters (Hybond ECL, Amersham) at 4° C. After Ponceau S staining, the filters were blocked in PBS containing 1% (w/v) BSA and 0.05% (v/v) Tween-20. The filters were then incubated with primary antibody, rinsed and immunoreactive bands were detected using appropriate HRP-conjugated secondary antibody and chemiluminescence (ECL, Amersham).
Incubations were performed in triplicate and analyzed in parallel. The cells were extracted in Laemmli sample buffer and proteins were resolved by SDS-PAGE. […] Other experiments have shown that this is due to the loss of phosphate from the protein on serine and threonine residues.
(§3) Cell extracts were prepared and p120 (◯) and p100 (●) were detected by immunoblotting following SDS-PAGE, FIG. 2, Panel A. The same filter was also probed with the antibody recognizing the activated forms of p42 and p44 MAP kinase (arrowheads), FIG. 2, Panel B. Equal loading of lanes was verified as in FIG. 1. […] After 60 minutes of incubation, the effect was less apparent (FIG. 2A). The kinetics paralleled those of the increase in amount of activated MAP kinase (FIG. 2B).
(§4) Cell extracts were prepared and p120 (◯) and p100 (●) were detected by immunoblotting following SDS-PAGE, FIG. 3, Panel A. The same filter was also probed with the antibody recognizing the activated forms of p42 and p44 MAP kinase (arrowheads), FIG. 3, Panel B. Equal loading lanes was verified as in FIG. 1. […] The sensitivity of the increase in amount of activated MAP kinase paralleled that of the increase in p120/p100 mobility (FIG. 3B).
To determine which receptor(s) were responsible for the p120/p100 shift, the effects of placenta derived growth factor (P/GF), a VEGFR-1-specific ligand, were examined.

p42 and p44 MAP kinase = test: immunoblot for activated forms of p42 and p44 MAP kinase in HUVEC; format: cell-based, Human; conditions: for amount of activated (phosphorylated) p42/p44 MAP kinase: 10 μM histamine, 200 nM phorbol 12,13 dibutyrate
Description: as §1, §2
To reveal other changes in VEGF-stimulated signalling processes, the filters were also probed with an antibody recognizing the activated forms of p42 and p44 MAP kinase.
as §3, §4
To determine which receptor(s) were responsible for the p120/p100 shift, the effects of placenta derived growth factor (P/GF), a VEGFR-1-specific ligand, were examined. Confluent monolayers of HUVECs were incubated for 5 minutes in the absence (lane labelled C) or presence of P/GF at 100 (P/GF100) or 1000 ng/ml (P/GF1000). […] In another experiment, the cells were preincubated for 30 minutes in the absence (−) or presence (+) of 5 μM of the VEGFR-2 inhibitor SU5416. […] In all cases, cell extracts were prepared and p120 (◯) and […] (●) were detected by immunoblotting following SDS-PAGE, FIGS. 4A and 4C. […]

β-catenin, p120 and p100 = test: PY20 anti-phosphotyrosine immunoprecipitation and immunoblotting; format: cell-based, Human; conditions: HUVEC; for β-catenin and p120/p100 in phosphotyrosine (PY20) immunoprecipitates: 2.6 nM VEGF or 10 μM histamine 5 minutes, 100 μM pervanadate 15 minutes
Description: For p120/p100-specific and phosphotyrosine (PY20) protein immunoprecipitations, the cells were lysed in boiling SDSSB (1% SDS, 25 mM Hepes, 2 mM EDTA, 0.1 M NaCl, 25 mM NaF, 1 mM vanadate, pH 7.6). The lysate was then collected, heated at 100° C. for 5 minutes, cooled and diluted with four volumes of ice-cold TX buffer that contained 2.9% instead of 1% Triton X-100. Immunoprecipitation was performed as described for TX buffer extractions.
Some cells were treated for 15 minutes with 100 μM of the broad-spectrum tyrosine phosphatase inhibitor, pervanadate. Lysates of the cells were prepared by immediate extraction into a boiling solution of an SDS-based buffer containing kinase and phosphatase inhibitors, as described above.
These extracts were then immunoprecipitated with antiphosphotyrosine antibody PY20 and analyzed by immunoblotting with PY20 (FIG. 7D).

HUVEC = conditions: 2.6 nM VEGF, 5 minutes
Description: Confluent monolayers of cells were fixed at room temperature for 15 minutes in 3% paraformaldehyde made up in PBS. Fixed cells were rinsed and then permeabilized by incubation with 0.5% Triton X-100 in PBS for 30 minutes. All antibodies were diluted in PBS containing 10% FCS, 0.1 M lysine, 0.3% Triton-X-100 and 0.02% azide. Incubation with antibody recognizing junction-associated protein was at 4° C. overnight followed by incubation with mouse or rabbit anti-phosphotyrosine antibody for 2 hours at room temperature. Secondary antibodies recognizing mouse and rabbit IgG conjugated to Cy3 or fluorescein, respectively, were applied together for 1 hour at room temperature. After rinsing, the samples were mounted under Citifluor and viewed with epifluorescence on a Nikon Eclipse E800 microscope. Photographs were taken using Kodak T-MAX film (400 ASA).
After 5 minutes, the cells were fixed and then stained. […] All images were from similarly timed exposures. Bar, 20 μm.

p120 and p100 [2] = conditions: HUVEC, 5 minutes; 2.6 nM VEGF, 10 μM histamine, 200 nM PDB
Description: [^32P]Phosphate labelling was performed using Puck's Saline A (P-2917; Sigma, supplemented with 10 mM Hepes (Gibco), 2 mM glutamine (Gibco), 1 mM CaCl2, 1 mM MgSO4 and 0.2% (v/v) foetal calf serum. Cultures were rinsed twice with medium and then incubated with the same medium containing 100 μCi/ml of [^32P]phosphate. Labelling was for 2 hours at 37° C. in humidified air with ambient CO2.
For phosphorylation analysis, cultures of HUVECs were labelled with [^32P]orthophosphate. After appropriate treatment, the cultures were lysed in boiling SDSSB and immunoprecipitated with the anti-p120/p100 antibody as described. For quantitation of [^32P]phosphate:protein, each immunoprecipitation was from protein extracted from ˜10 cm^2 of confluent culture. For the phosphoaminoacid analysis and Cleveland maps, protein from ˜60 cm^2 of confluent cells was used per immunoprecipitation. After separation by SDS-PAGE, for quantitation of [^32P]phosphate and p120/p100, protein was transferred to nitrocellulose and [^32P]phosphate incorporated into p120/p100 was detected by autoradiography. […] The area of filter containing p120 or p100 was detected by autoradiography, excised, and protein was acid hydrolysed to release phosphoaminoacids. These were then separated in two dimensions by high voltage electrophoresis at pH 1.9 and pH 3.5 and detected by autoradiography (Boyle et al., 1991). […]

p120 and p100 [3] = conditions: HUVEC, 2.6 nM VEGF, 5 minutes
cadherin/catenin complex = conditions: HUVEC, 2.6 nM VEGF, 5 minutes
Description: For analysis of the cadherin and its association with catenins, extraction and immunoprecipitations were performed at 4° C. Cultures were briefly rinsed with ice-cold PBS and then lysed in TX buffer (1% (v/v) Triton X-100, 25 mM Hepes, 2 mM EDTA, 0.1 M NaCl, 25 mM NaF, 1 mM vanadate, pH 7.6 (adjusted with NaOH), 1 mM PMSF, 10 μg/ml soybean trypsin inhibitor, 0.1 U/ml α2-macroglobulin, 10 μg/ml leupeptin). The cells were extracted into lysis buffer for 10-15 minutes and then collected after scraping the dish. The lysates were centrifuged at 14,000×g for 20 minutes. The supernatant was precleared with protein A-Sepharose (Pharmacia) for 1 hour and then incubated with primary antibody for 1 hour followed by a further 1 hour with protein A-Sepharose together with rabbit anti-mouse antibodies. After five washes in lysis buffer, immune complexes were dissociated by addition of Laemmli sample buffer followed by heating at 100° C. for 5 minutes. Protein analysis was by SDS-PAGE and immunoblotting as described above.

[4] = HUVEC preincubated 30 minutes with 5 μM, then 2.6 nM VEGF 5 minutes
[5] = HUVEC preincubated 30 minutes with 5 μM, then 10 μM histamine 5 minutes
[6] = HUVEC, 100 μM pervanadate, 15 minutes
[7] = HUVEC, 5 minutes, P/GF at 100 or 1000 ng/ml

effect on VEGF-stimulated activation of MAP kinase (p42 and p44 MAP kinase; [4]): blocked
effect on histamine-stimulated activation of MAP kinase (p42 and p44 MAP kinase; [5]): did not block
Molecule: Cc1cc(C)c(/C=C2\C(=O)Nc3ccccc32)[nH]1 [SU5416, reference compound]
effect on VEGF-stimulated increase in p120/p100 mobility (p120 and p100 [1]; [4]): blocked
effect on histamine-stimulated mobility shift in p120/p100 (p120 and p100 [1]; [5]): did not block

kinetics of increase in activated MAP kinase relative to p120/p100 mobility (p42 and p44 MAP kinase; HUVEC, 2.6 nM VEGF, time course): paralleled
sensitivity of increase in activated MAP kinase relative to p120/p100 mobility (p42 and p44 MAP kinase; HUVEC, 5 minutes, indicated concentrations of VEGF): paralleled
Molecule: VEGF
time at which increase in mobility of p120 and p100 was observed (p120 and p100 [1]; HUVEC, 2.6 nM (100 ng/ml) VEGF): ≤ 2 min
time for which increase in mobility of p120 and p100 was sustained (p120 and p100 [1]; HUVEC, 2.6 nM (100 ng/ml) VEGF): up to 30 minutes
effect on p120/p100 mobility after 60 minutes of incubation (p120 and p100 [1]; HUVEC, 2.6 nM VEGF, 60 minutes): less apparent
lowest concentration with observed effect on p120/p100 mobility (p120 and p100 [1]; HUVEC, 5 minutes): 0.1 nM
p120/p100 electrophoretic mobility (band shift) (p120 and p100 [1]; HUVEC, 5 minutes, 2.6 nM VEGF): migrate as faster, tighter bands; also recorded: effective; also recorded: increased electrophoretic mobility; also recorded: produced effects
amount of activated (phosphorylated) p42/p44 MAP kinase (p42 and p44 MAP kinase; HUVEC, 5 minutes, 2.6 nM VEGF): clearly stimulated an increase; also recorded: effective; also recorded: produced effects
focal contact protein tyrosine phosphorylation (PY20 immunoprecipitation) (β-catenin, p120 and p100; 2.6 nM VEGF, 5 minutes): increased
β-catenin and p120/p100 in phosphotyrosine (PY20) immunoprecipitates (β-catenin, p120 and p100): did not reveal any hint
colocalization of altered phosphotyrosine staining with β-catenin staining (HUVEC): did not colocalize
phosphotyrosine striations within the cells (HUVEC): increased
vinculin staining (HUVEC): appearance of vinculin-positive striations
phosphate incorporation into 30 kDa and 17 kDa V8 cleavage products of p120 and p100 (p120 and p100 [2]): substantially decreased
phosphotyrosine in p120 and p100 (p120 and p100 [3]): not detected
amount of phosphoserine and phosphothreonine in p120 and p100 (p120 and p100 [3]; 10 μM histamine, 200 nM PDB): decreased
association of catenins with cadherins (VE-cadherin, N-cadherin, α, β and γ catenin, p120, p100) (cadherin/catenin complex): no effect on association of any members of the complex

activation of MAP kinase (p42 and p44 MAP kinase; [6]): did lead to activation of MAP kinase
Molecule: pervanadate [reference compound]
mobility of p120/p100 (p120 and p100 [1]; [6]): did not affect the mobility
β-catenin and p120/p100 in phosphotyrosine (PY20) immunoprecipitates (β-catenin, p120 and p100): detected

The next lines start with the molecule.

Molecule: NCCc1c[nH]cn1 [Histamine, reference compound]
p120/p100 electrophoretic mobility (band shift) (p120 and p100 [1]; HUVEC, 5 minutes, 2.6 nM VEGF): effective; also recorded: increased electrophoretic mobility; also recorded: produced effects
amount of activated (phosphorylated) p42/p44 MAP kinase (p42 and p44 MAP kinase; HUVEC, 5 minutes, 2.6 nM VEGF): increased the amounts of phospho-MAP kinases
amount of activated (phosphorylated) p42/p44 MAP kinase (p42 and p44 MAP kinase; HUVEC, 5 minutes, 2.6 nM VEGF, listed as histamine): effective; also recorded: produced effects
β-catenin and p120/p100 in phosphotyrosine (PY20) immunoprecipitates (β-catenin, p120 and p100): did not reveal any hint

Molecule: CCCC(=O)O[C@@H]1[C@@H](C)[C@@]2(O)[C@@H](C=C(CO)C[C@]3(O)C(=O)C(C)=C[C@@H]23)[C@@H]2C(C)(C)[C@]12OC(=O)CCC [PDB, Phorbol-12,13-dibutyrate, reference compound]
p120/p100 electrophoretic mobility (band shift) (p120 and p100 [1]; HUVEC, 5 minutes, 2.6 nM VEGF): increased electrophoretic mobility
amount of activated (phosphorylated) p42/p44 MAP kinase (p42 and p44 MAP kinase; HUVEC, 5 minutes, 2.6 nM VEGF): without effect

B1: P/GF: placenta derived growth factor, a VEGFR-1-specific ligand, from R & D Systems (protein, UniProt P49763 19-221, looked up)
Placenta growth factor: LPAVPPQQWALSAGNGSSEVEVVPFQEVWGRSYCRALERLVDVVSEYPSEVEHMFSPSCVSLLRCTGCCGDENLHCVPVETANVTMQLLKIRSGDRPSYVELTFSQHVRCECRHSPGRQSPDMPGDFRADAPSFLPPRRSLPMLFRMEWGCALTGSQSAVWPSSPVPEEIPRMHPGRNGKKQQRKPLREKMKPERCGDAVPRR
mobility shift in p120/p100 (p120 and p100 [1]; [7]): failed to stimulate a mobility shift
activation of MAP kinase (p42 and p44 MAP kinase; [7]): did not lead to activation of MAP kinase
